Laboratory results published in ChEMBL document CHEMBL1159083, “An octahydro-cyclopenta[c]pyrrole series of inhibitors of the type 1 glycine transporter” (Bioorg Med Chem Lett, 2010).

Assay: Half life in human microsomes
Type: ADME, Microsome

Row | SMILES | half-life [min]
1 | COc1ccc(CN(C(=O)c2cn(C)cn2)[C@H]2C[C@H]3CNC[C@H]3C2)cc1OC1CCCC1 | > 120
2 | Cn1cnc(C(=O)N(Cc2cccc(OC(F)(F)F)c2)[C@@H]2C[C@@H]3CN(CC(O)c4ccccc4)C[C@@H]3C2)c1 (stereo partly specified) | 8.19
3 | Cn1cnc(C(=O)N(Cc2cccc(OC(F)(F)F)c2)[C@@H]2C[C@@H]3CN(CC(C)(C)O)C[C@@H]3C2)c1 | 7.06
4 | CCN1C[C@H]2C[C@@H](N(Cc3ccc(F)c(C(F)(F)F)c3)C(=O)c3cn(C)cn3)C[C@H]2C1 | > 120
5 | Cn1cnc(C(=O)N(Cc2cccc(OC(F)(F)F)c2)[C@@H]2C[C@@H]3CN(CCC(F)(F)F)C[C@@H]3C2)c1 | < 3.2
6 | Cn1cnc(C(=O)N(Cc2ccc(F)c(C(F)(F)F)c2)[C@H]2C[C@H]3CNC[C@H]3C2)c1 | > 120
7 | CC(F)CN1C[C@H]2C[C@@H](N(Cc3cccc(OC(F)(F)F)c3)C(=O)c3cn(C)cn3)C[C@H]2C1 (stereo partly specified) | < 3.2
8 | Cn1cnc(C(=O)N(Cc2ccc(F)c(C(F)(F)F)c2)[C@@H]2C[C@H]3CNC[C@H]3C2)c1 | > 120
9 | CN1C[C@H]2C[C@@H](N(Cc3ccc(F)c(C(F)(F)F)c3)C(=O)c3cn(C)cn3)C[C@H]2C1 | > 120
10 | CN1C[C@H]2C[C@@H](N(Cc3ccc(F)c(OC4CCCC4)c3)C(=O)c3cn(C)cn3)C[C@H]2C1 | 78.1
11 | CCN1C[C@H]2C[C@@H](N(Cc3cccc(OC(F)(F)F)c3)C(=O)c3cn(C)cn3)C[C@H]2C1 | 10
12 | Cn1cnc(C(=O)N(Cc2cccc(OC(F)(F)F)c2)[C@H]2C[C@H]3CNC[C@H]3C2)c1 | 50
13 | CC(C)Oc1cccc(CN(C(=O)c2cn(C)cn2)[C@H]2C[C@H]3CNC[C@H]3C2)c1 | > 120
14 | Cn1cnc(C(=O)N(Cc2cccc(OC3CCCC3)c2)[C@H]2C[C@H]3CNC[C@H]3C2)c1 | > 120
15 | CN1C[C@H]2C[C@@H](N(Cc3cccc(OC(F)(F)F)c3)C(=O)c3cn(C)cn3)C[C@H]2C1 | 30.5
16 | Cn1cnc(C(=O)N(Cc2ccc(F)c(OC3CCCC3)c2)[C@H]2C[C@H]3CNC[C@H]3C2)c1 | > 111
